The record followed here is patent US9708336B2, “Metallo-beta-lactamase inhibitors” (priority 2014, dated 2017).

Assay [1] deals with Serratia marcescens expressing IMP-1 (CL5741). Put plainly: Antibiotic potentiation activity: synergistic concentration (MITC95) with imipenem, OD600 growth. The conditions noted are these: Serratia marcescens expressing IMP-1 (CL5741), 95% growth inhibition. The assay is classed as cell-based. The method in brief:
(§1)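 Inoculum: saline suspension of overnight colonies, 1:100 into 1.1× CAMHB. Imipenem 4 μg/ml final (alt. 1 μg/ml) + compound; 35 °C, 22–24 h; absorbance read-out.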

The test system of assay [2] is Escherichia coli expressing NDM-1 (CLB30005). Described as above. The assay is classed as cell-based. As to conditions: Escherichia coli expressing NDM-1 (CLB30005), 95% growth inhibition. The method in brief: as §1
Assay [3] concerns Klebsiella pneumoniae expressing VIM-1 (IHMA599644). The assay is described as above. The format is cell-based. As to conditions: Klebsiella pneumoniae expressing VIM-1 (IHMA599644), 95% growth inhibition. The method in brief:
as §1

For a further assay, the target named is VIM-1 (Pseudomonas aeruginosa (strain ATCC 15692 / DSM 22644 / CIP 104116 / JCM 14847 / LMG 12228 / 1C / PRS 101 / PAO1), UniProt A0A0F7KYQ8). Briefly: Enzyme activity: determination of IC50, fluorescence assay with CCF2-FA substrate (VIM-1). The assay is classed as biochemical. As to conditions: CCF2-FA fluorescence assay.
The next assay addresses IMP-1 (Serratia marcescens, UniProt P52699). Briefly: biochemical. The format is biochemical. The conditions noted are these: IMP-1 enzyme, CCF2-FA fluorescence assay; read-out: IMP-1 IC50.
Another assay has as its target NDM-1 (Klebsiella pneumoniae, UniProt C7C422). Put plainly: biochemical. The format is biochemical. The conditions noted are these: NDM-1 enzyme, CCF2-FA fluorescence assay; read-out: NDM-1 IC50.
The mark [4] stands for this setting: VIM-1 enzyme, read-out: VIM-1 IC50.

Read-outs that look alike come from different tables or passages of the source. Where only a bound is given, the exact number is not on record here.

NDM-1, sequence (C7C422 whole entry, looked up, species assumed): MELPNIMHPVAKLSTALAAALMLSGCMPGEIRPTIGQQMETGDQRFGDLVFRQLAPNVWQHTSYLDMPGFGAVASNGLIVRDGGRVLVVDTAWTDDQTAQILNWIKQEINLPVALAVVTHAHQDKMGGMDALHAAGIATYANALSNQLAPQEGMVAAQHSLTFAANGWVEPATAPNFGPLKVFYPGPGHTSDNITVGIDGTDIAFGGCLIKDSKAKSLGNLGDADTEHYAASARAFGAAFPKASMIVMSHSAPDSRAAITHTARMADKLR
IMP-1, sequence (P52699 whole entry, looked up): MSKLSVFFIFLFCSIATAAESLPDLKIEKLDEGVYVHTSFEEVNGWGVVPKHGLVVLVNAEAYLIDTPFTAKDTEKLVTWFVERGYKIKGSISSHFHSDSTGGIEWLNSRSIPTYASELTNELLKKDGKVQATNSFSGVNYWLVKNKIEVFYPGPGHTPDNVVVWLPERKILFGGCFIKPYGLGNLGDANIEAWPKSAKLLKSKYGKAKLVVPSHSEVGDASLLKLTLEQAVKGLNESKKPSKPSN

Turning to `COc1nc2cc(Cl)c(-c3cccc(S(N)(=O)=O)c3-c3nn[nH]n3)cc2[nH]1` [Example 279, 3-(5-chloro-2-methoxy-1H-benzo[d]imidazol-6-yl)-2-(2H-tetrazol-5-yl)benzenesulfonamide], the “Serratia marcescens MITC95” value in assay [1] stood at 25 µM. In addition, the “Escherichia coli MITC95” value in assay [2] was 0.5859 µM. For the same compound, in assay [3], the “Klebsiella pneumoniae MITC95” value came out at 75 µM. Besides, the half-maximal inhibitory concentration (IC50) against VIM-1 (VIM-1 IC50, VIM-1 enzyme) came to 183 nM; on IMP-1, 2170 nM; on NDM-1, 32.3 nM.
Take `NS(=O)(=O)c1cc(Cl)cc(-c2ccc3c(c2)C(=O)NC3)c1-c1nn[nH]n1` [Example 289, 5-Chloro-3-(3-oxo-2,3-dihydro-1H-isoindol-5-yl)-2-(2H-tetrazol-5-yl)benzenesulfonamide]: the “Serratia marcescens MITC95” value in assay [1] was 31.25 µM. Also, the “Escherichia coli MITC95” value in assay [2] was 3.125 µM. Also, the “Klebsiella pneumoniae MITC95” value in assay [3] is above 200 µM. Also, the IC50 was 452 nM on VIM-1 (setting [4]), 121 nM at IMP-1 and 13.5 nM on NDM-1.
For the compound `Cc1ccc(-c2cc(-c3ccc4c(c3)CNC4=O)cc(S(N)(=O)=O)c2-c2nn[nH]n2)cc1` [Example 290, 4′-Methyl-5-(1-oxoisoindolin-5-yl)-2-(2H-tetrazol-5-yl)-[1,1′-biphenyl]-3-sulfonamide], in assay [1], the “Serratia marcescens MITC95” value came to 19.53 µM. The “Escherichia coli MITC95” value in assay [2] is 3.516 µM. Moreover, the “Klebsiella pneumoniae MITC95” value in assay [3] is above 200 µM. Also, the half-inhibitory concentration (IC50) at VIM-1 (setting [4]) was found to be 34.3 nM; at IMP-1, 19.7 nM; on NDM-1 it was 0.637 nM.
`Cc1ccc(-c2cc(-c3cnn(C)c3)cc(S(N)(=O)=O)c2-c2nn[nH]n2)cc1` [Example 291, 4′-methyl-5-(1-methyl-1H-pyrazol-4-yl)-2-(2H-tetrazol-5-yl)-[1,1′-biphenyl]-3-sulfonamide]: the “Serratia marcescens MITC95” value in assay [1] is 4.688 µM. Also, in assay [2], the “Escherichia coli MITC95” value worked out at 3.906 µM. Moreover, in assay [3], the “Klebsiella pneumoniae MITC95” value is above 200 µM. Besides, the IC50 on VIM-1 (setting [4]) was determined as 222 nM; on IMP-1, 98.6 nM; at NDM-1, 1.47 nM.
As for `Cc1ccc(-c2cc(-c3ccc(O)nc3)cc(S(N)(=O)=O)c2-c2nn[nH]n2)cc1` [Example 292, 5-(6-hydroxypyridin-3-yl)-4′-methyl-2-(2H-tetrazol-5-yl)-[1,1′-biphenyl]-3-sulfonamide], the “Serratia marcescens MITC95” value in assay [1] turned out to be 18.75 µM. The “Escherichia coli MITC95” value in assay [2] was 3.516 µM. Besides, in assay [3], the “Klebsiella pneumoniae MITC95” value was above 200 µM. In addition, the concentration for half-maximal inhibition (IC50) on VIM-1 (setting [4]) came out at 193 nM; at IMP-1, 416 nM; on NDM-1 it was 3.65 nM.
With `Cc1ccc(-c2cc(-c3cccnc3)cc(S(N)(=O)=O)c2-c2nn[nH]n2)cc1` [Example 293, 4′-methyl-5-(pyridin-3-yl)-2-(2H-tetrazol-5-yl)-[1,1′-biphenyl]-3-sulfonamide], the “Serratia marcescens MITC95” value in assay [1] came to 9.375 µM. In addition, the “Escherichia coli MITC95” value in assay [2] came out at 1.953 µM. The “Klebsiella pneumoniae MITC95” value in assay [3] is above 200 µM. Moreover, the half-maximal inhibitory concentration (IC50) turned out to be 232 nM on VIM-1 (setting [4]), 86.5 nM at IMP-1 and 1.02 nM at NDM-1.
In the case of `Cc1ccc(-c2cc(-c3ccc4c(c3)CNC4)cc(S(N)(=O)=O)c2-c2nn[nH]n2)cc1` [Example 294, 5-(isoindolin-5-yl)-4′-methyl-2-(2H-tetrazol-5-yl)-[1,1′-biphenyl]-3-sulfonamide], the “Serratia marcescens MITC95” value in assay [1] turned out to be 0.6406 µM. Besides, the “Escherichia coli MITC95” value in assay [2] was 0.3802 µM. Moreover, in assay [3], the “Klebsiella pneumoniae MITC95” value amounted to 37.5 µM. The IC50 at VIM-1 (VIM-1 IC50, VIM-1 enzyme) worked out at 193 nM; on IMP-1, 29.4 nM; at NDM-1 it was 0.637 nM.
Regarding `Cc1ccc(-c2cc(-c3cccc(C(N)=O)c3)cc(S(N)(=O)=O)c2-c2nn[nH]n2)cc1` [Example 295, 4″-methyl-5′-sulfamoyl-4′-(2H-tetrazol-5-yl)-[1,1′:3′,1″-terphenyl]-3-carboxamide], in assay [1], the “Serratia marcescens MITC95” value worked out at 1.563 µM. Further, the “Escherichia coli MITC95” value in assay [2] stood at 1.953 µM. In assay [3], the “Klebsiella pneumoniae MITC95” value was above 200 µM. Moreover, the 50% inhibitory concentration (IC50) amounted to 126 nM on VIM-1 (setting [4]), 16.1 nM on IMP-1 and 0.637 nM on NDM-1.
